Where two headings read alike, the source gives them in different places.
How the values were obtained:
[1] = biological target: JMJD5 (Homo sapiens, UniProt Q8N371); experiment: biochemical
Excerpt: (§1) To investigate the potential of BNS for selective FIH inhibition, its selectivity was investigated with respect to other 2OG-dependent protein oxidising enzymes, that is PHD2, Jumonji-C domain-containing protein 5 (JMJD5), aspartate/asparagine-β-hydroxylase (AspH) and KDM4A, using reported SPE-MS inhibition assays.[58,61,69,70] In addition to PHD2 and KDM4A, we included AspH and JMJD5 in our selectivity studies, because AspH, like FIH, catalyses protein aspartate- and asparagine-residue hydroxylation (although in epidermal growth factor-like domains),[71,72] and because JMJD5 is structurally closely related to FIH.[73,74]
(§2) 3. Biochemical procedures
(§3) Protein production and purification
(§4) PAGE analysis) according to established procedures.
(§5) FIH, PHD2, AspH, JMJD5 and KDM4A inhibition assays
(§6) The in vitro FIH,1, 2 PHD2,1 AspH,38 JMJD536 and KDM4A39 inhibition assays were performed as […]
(§7) KDM4A). Synthetic peptide substrates were used: HIF-1α C-terminal transactivation domain fragment […]
(§8) H3Lys9 bearing three methyl groups at the N ϵ position, H3Lys4 substituted by an Ala and H3Lys14 substituted by an Ile residue) for KDM4A.39 Peptides were prepared as C-terminal amides by GL Biochem (Shanghai) Ltd. Peptide hydroxylation in the case of FIH, PHD2, AspH and JMJD5 (+16 Da mass shift) or peptide demethylation in the case of KDM4A ( -14 Da mass shift) was monitored by SPE-MS. […]

[2] = biological target: AspH (Homo sapiens, UniProt Q12797); experiment: biochemical
Chain of AspH (Q12797 315-758): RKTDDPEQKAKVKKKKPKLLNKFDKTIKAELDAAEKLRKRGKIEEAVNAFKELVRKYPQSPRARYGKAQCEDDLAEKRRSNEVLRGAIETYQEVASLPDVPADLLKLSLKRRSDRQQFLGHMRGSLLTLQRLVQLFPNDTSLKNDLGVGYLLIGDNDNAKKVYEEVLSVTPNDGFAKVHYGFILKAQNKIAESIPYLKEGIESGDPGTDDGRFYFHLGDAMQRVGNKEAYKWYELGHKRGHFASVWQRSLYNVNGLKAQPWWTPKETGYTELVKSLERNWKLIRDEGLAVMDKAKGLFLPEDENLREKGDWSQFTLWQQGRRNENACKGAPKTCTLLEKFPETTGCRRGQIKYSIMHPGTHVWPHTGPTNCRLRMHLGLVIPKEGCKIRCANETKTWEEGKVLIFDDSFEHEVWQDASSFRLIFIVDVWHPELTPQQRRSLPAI
Excerpt: as §1, §2, §3, §4, §5, §6, §7, §8

[3] = biological target: KDM4A (Homo sapiens, UniProt O75164); experiment: biochemical; format: biochemical
Chain of KDM4A (O75164 1-359): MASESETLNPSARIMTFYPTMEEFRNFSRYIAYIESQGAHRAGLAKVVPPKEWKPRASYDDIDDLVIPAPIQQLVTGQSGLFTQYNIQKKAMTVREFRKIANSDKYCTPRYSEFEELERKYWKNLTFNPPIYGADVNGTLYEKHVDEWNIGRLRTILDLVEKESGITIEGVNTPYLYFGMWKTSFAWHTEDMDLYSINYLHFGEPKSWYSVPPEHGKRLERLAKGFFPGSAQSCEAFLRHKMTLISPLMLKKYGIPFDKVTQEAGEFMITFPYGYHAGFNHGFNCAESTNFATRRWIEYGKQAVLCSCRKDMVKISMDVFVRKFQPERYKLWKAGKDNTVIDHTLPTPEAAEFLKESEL
Excerpt: as §1, §2, §3, §4, §5, §6, §7, §8

[4] = biological target: PHD2 (Homo sapiens, UniProt Q9GZT9); experiment: biochemical
Chain of PHD2 (Q9GZT9 181-426): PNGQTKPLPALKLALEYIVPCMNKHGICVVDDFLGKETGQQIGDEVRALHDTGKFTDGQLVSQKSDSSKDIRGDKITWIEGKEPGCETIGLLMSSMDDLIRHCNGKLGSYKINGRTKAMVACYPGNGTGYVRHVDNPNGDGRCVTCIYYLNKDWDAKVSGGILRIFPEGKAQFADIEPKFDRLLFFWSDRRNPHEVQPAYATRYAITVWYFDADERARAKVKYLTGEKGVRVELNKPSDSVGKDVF
Experimental: as §2, §3, §4, §5, §6, §7, §8

[5] = biological target: T1, FIH (Homo sapiens, UniProt Q9NWT6); experiment: SPE-MS FIH inhibition assay; format: biochemical; conditions: for FIH inhibition potency relative to 2,4-PDCA (more potent): IC50 comparison with 2,4-PDCA
T1 construct: made in house
T1 sequence (Q9NWT6 whole entry): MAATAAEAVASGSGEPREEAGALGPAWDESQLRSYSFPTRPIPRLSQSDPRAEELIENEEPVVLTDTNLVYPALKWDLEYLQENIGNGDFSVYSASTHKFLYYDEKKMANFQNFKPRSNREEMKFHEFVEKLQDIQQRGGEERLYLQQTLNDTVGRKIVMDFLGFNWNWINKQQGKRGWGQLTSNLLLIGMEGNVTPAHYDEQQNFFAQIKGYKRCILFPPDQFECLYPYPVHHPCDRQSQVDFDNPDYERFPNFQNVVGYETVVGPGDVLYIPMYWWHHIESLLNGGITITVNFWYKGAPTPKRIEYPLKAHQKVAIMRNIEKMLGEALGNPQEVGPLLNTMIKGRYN
Experimental: as §3, §4, §5, §6, §7, §8

[6] = system: EGLN3; experiment: qRT-PCR of EGLN3 expression in Hep3B cells; format: cell-based, human; conditions: for increase of EGLN3 expression relative to DMSO: 50 μM, 12 h, qRT-PCR
Experimental: (§9) 4. Methods for cell studies […]
(§10) in Minimum Essential Medium (MEM, GIBCO) with 10% fetal bovine serum (FBS, BI), 100 U/mL penicillin and 100 μg/mL streptomycin (1 × P/S, NCM Biotech). […]
(§11) and 100 μg/mL streptomycin (1 × P/S, NCM Biotech).
(§12) Quantitative PCR Analysis of Gene Expression […]
(§13) treated with vehicle (DMSO) or an inhibitor (at the concentrations indicated) for 12 h. Total RNA was isolated from cells and tissues using Trizol regents (Vazyme, China). 1 μg RNA was used for reverse transcription using HiScript III RT SuperMix for qPCR (Vazyme, China). cDNAs were amplified in a ChamQ Universal SYBR qPCR Master Mix (Vazyme, China). Quantitative PCR (qPCR) was performed on […]
(§14) a ABI QuantStudio 3 system.
(§15) The relative amount of mRNA was calculated after
(§16) 3T3-L1 derived adipocytes. […]

[7] = system: EGLN3; experiment: qRT-PCR of EGLN3 expression in 786-O cells; format: cell-based; conditions: VHL-deficient 786-O cells
Experimental: as §9, §10, §11, §12, §13, §14, §15, §16

[8] = system: 3T3-L1 derived adipocytes; experiment: Cellular triglyceride (TG) colorimetric assay; format: cell-based; conditions: 20 μM
Experimental: as §9, §10
and 100 μg/mL streptomycin (1 × P/S, NCM Biotech). […]
3T3-L1 derived adipocytes.
10% newborn calf serum (NCS, GIBCO), 100 U/mL penicillin and 100 μg/mL streptomycin (1 × P/S, NCM […]
The 3T3-L1 cells were strictly subcultured before they
Subcultures of 3T3 -L1 cells were routinely cultured in DMEM medium containing 10% NCS for two days, and then the cells were cultured in DMEM containing 10% FBS, 0.5 mM 3 -isobutyl-1-methylxanthine, 1 μM dexamethasone, 10 μg/mL insulin and 2 μM rosiglitazone for another two days. Subsequently, the cells were cultured in DMEM containing 10% FBS and 10 μg/mL insulin for two days. After these procedures, the cells were maintained in […]
To investigate the effect of inhibitors on adipocytes, 3T3-L1-derived adipocytes were treated with vehicle (DMSO) or with an inhibitor (at the concentrations indicated) for 48 h. […]
Cellular TG level assay for 3T3 -L1 derived adipocytes.
The 3T3-L1-derived adipocytes were washed with PBS, then the cells were lysed. And then, the cellular TG level was determined by using a cellular triglyceride assay kit (Applygen, China).
Oil Red O staining for 3T3-L1 derived adipocytes.

[9] = IC50 comparison with compound 20

Chain of JMJD5 (Q8N371 whole entry, the tested form may be a part): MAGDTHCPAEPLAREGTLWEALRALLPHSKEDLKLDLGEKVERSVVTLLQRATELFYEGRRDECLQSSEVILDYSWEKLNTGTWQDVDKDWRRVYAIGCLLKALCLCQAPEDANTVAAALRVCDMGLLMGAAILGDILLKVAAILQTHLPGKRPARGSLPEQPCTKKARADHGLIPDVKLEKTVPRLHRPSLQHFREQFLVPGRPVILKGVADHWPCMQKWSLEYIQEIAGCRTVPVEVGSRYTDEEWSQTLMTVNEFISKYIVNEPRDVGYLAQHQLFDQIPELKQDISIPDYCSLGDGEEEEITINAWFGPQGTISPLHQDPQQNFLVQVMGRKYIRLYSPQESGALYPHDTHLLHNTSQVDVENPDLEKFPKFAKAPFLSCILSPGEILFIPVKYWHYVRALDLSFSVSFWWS

Structure (SMILES)	IC50 ([1]; read-out: JMJD5 IC50)	IC50 [2]	IC50 [3]	IC50 [4]	melting point	IC50 [5]	further results
O=C(O)Cc1cs/c(=N\C(=O)C2CN(S(=O)(=O)c3ccccc3)C2)n1O [compound 24]	29.1 ± 4.4 µM	60.9 ± 24.1 µM	> 100 µM	5.2 ± 0.7 µM	170 to 173 °C	0.45 ± 0.17 µM	selectivity for FIH inhibition over PHD2 inhibition ([5]; as judged by IC50 values): 12 fold
O=C(O)Cc1cs/c(=N\C(=O)CNS(=O)(=O)c2ccccc2)n1O [compound 19]	12 ± 0.6 µM	3.1 ± 0.4 µM	17.4 ± 0.2 µM	15.5 ± 4.6 µM	178 to 180 °C	3.7 ± 1.5 µM	loss in FIH inhibition relative to 20 [5, 9]: ~4 fold
O=C(O)Cc1csc(=NC(=O)C2CCN(S(=O)(=O)c3ccc(Oc4ccccc4)cc3)C2)n1O (stereo not drawn) [compound 39]	8.6 ± 0.2 µM	29.8 ± 4.3 µM	> 100 µM	3.1 ± 0.2 µM	179 to 183 °C	0.29 ± 0.03 µM	increase of EGLN3 expression relative to DMSO [6]: ~2.5 fold; EGLN3 upregulation on co-administration with FG-4592 relative to compound alone [6]: no additional effect; effect on EGLN3 gene expression [7]: upregulation of EGLN3; FIH inhibition potency relative to 2,4-PDCA (more potent) [5]: ~10 fold; selectivity for FIH inhibition over AspH inhibition ([5]; as judged by IC50 values): > 100 fold; selectivity for FIH inhibition over KDM4A inhibition ([5]; as judged by IC50 values): > 300 fold
CC[C@H]1[C@@H](O)[C@@H]2[C@H](CC[C@]3(C)[C@@H]([C@H](C)CCC(=O)O)CC[C@@H]23)[C@@]2(C)CC[C@@H](O)C[C@@H]12 [obeticholic acid]	–	–	–	–	–	–	reduction in cellular TG levels [8]: 25%
CC1(C(=O)/N=c2\scc(CC(=O)O)n2O)CN(S(=O)(=O)c2ccccc2)C1 [compound 25]	32.6 ± 6.7 µM	> 100 µM	> 100 µM	33.5 ± 1 µM	156 to 158 °C	1.2 ± 0.2 µM	–
Cc1s/c(=N\C(=O)CS(=O)(=O)c2ccccc2)n(O)c1CC(=O)O (hydrate or solvate) [compound 7]	–	–	–	–	181 to 182 °C	–	–
O=C(O)CCc1cs/c(=N\C(=O)CS(=O)(=O)c2ccccc2)n1O (hydrate or solvate) [compound 13]	–	–	–	–	173 to 176 °C	–	–
O=C(O)Cc1csc(=NC(=O)C2CCN(S(=O)(=O)c3ccccc3)C2)n1O (stereo not drawn) [compound 26]	12.5 ± 1 µM	37.8 ± 11.3 µM	> 100 µM	12.4 ± 0.8 µM	185 to 187 °C	0.5 ± 0.02 µM	selectivity for FIH with respect to PHD2, JMJD5, AspH and KDM4A inhibition [5]: > 25 fold; increase of FIH inhibition potency relative to 20 [5, 9]: ~2 fold; selectivity for FIH inhibition over AspH inhibition ([5]; as judged by IC50 values): ~75 fold; selectivity for FIH inhibition over JMJD5 inhibition ([5]; as judged by IC50 values): ~25 fold; selectivity for FIH inhibition over PHD2 inhibition ([5]; as judged by IC50 values): ~25 fold
O=C(O)Cc1csc(=NC(=O)C2CCN(S(=O)(=O)c3ccc(-c4ccccc4)cc3)C2)n1O (stereo not drawn) [compound 38]	31.9 ± 2 µM	30.2 ± 10.9 µM	> 100 µM	3.1 ± 0.1 µM	180 to 183 °C	0.26 ± 0.01 µM	increase of EGLN3 expression relative to DMSO [6]: ~2.5 fold; EGLN3 upregulation on co-administration with FG-4592 relative to compound alone [6]: greater increase; effect on EGLN3 gene expression [7]: upregulation of EGLN3; FIH inhibition potency relative to 2,4-PDCA (more potent) [5]: ~10 fold; selectivity for FIH inhibition over AspH inhibition ([5]; as judged by IC50 values): > 100 fold; selectivity for FIH inhibition over KDM4A inhibition ([5]; as judged by IC50 values): > 300 fold
O=C(O)Cc1cs/c(=N\C(=O)CCNC(=O)c2ccccc2)n1O [compound 17]	–	28.3 ± 6.5 µM	> 100 µM	3.6 ± 0.4 µM	180 to 183 °C	4.6 ± 0.7 µM	IC50 [1]: 4.6 ± 1.7 µM; loss in FIH inhibition relative to 20 [5, 9]: ~5 fold
O=C(O)Cc1cs/c(=N\C(=O)CCNS(=O)(=O)c2ccccc2)n1O (hydrate or solvate) [compound 20]	–	–	–	–	178 to 180 °C	–	–

Reference: publication PMC10631261 (Chemical Science, 2023)
